Results reported in article PMC3918733, “The Enzymatic Decolorization of Textile Dyes by the Immobilized Polyphenol Oxidase from Quince Leaves” (The Scientific World Journal, 2014).

Test system: T1, polyphenol oxidase (PPO) from quince leaves
T1 construct: isoenzyme not identified; free enzyme
Experiment: absorbance at […] nm, Lineweaver-Burk
Format: biochemical, Cydonia oblonga
Conditions: free enzyme, partially purified; optimum pH and temperature (pH 7.5, 30 °C), phosphate buffer

Structure (SMILES): Oc1ccccc1O [catechol]
- Km: 5.86 mM
